Data: US20050176685A1 (priority 2002, published 2005)

What was measured:
[1] = biological target: T1, vitamin D receptor (Homo sapiens, UniProt P11473); details: compared with 1α,25-dihydroxy-cholecalciferol; cited from earlier work
T1 sequence (P11473 1-427): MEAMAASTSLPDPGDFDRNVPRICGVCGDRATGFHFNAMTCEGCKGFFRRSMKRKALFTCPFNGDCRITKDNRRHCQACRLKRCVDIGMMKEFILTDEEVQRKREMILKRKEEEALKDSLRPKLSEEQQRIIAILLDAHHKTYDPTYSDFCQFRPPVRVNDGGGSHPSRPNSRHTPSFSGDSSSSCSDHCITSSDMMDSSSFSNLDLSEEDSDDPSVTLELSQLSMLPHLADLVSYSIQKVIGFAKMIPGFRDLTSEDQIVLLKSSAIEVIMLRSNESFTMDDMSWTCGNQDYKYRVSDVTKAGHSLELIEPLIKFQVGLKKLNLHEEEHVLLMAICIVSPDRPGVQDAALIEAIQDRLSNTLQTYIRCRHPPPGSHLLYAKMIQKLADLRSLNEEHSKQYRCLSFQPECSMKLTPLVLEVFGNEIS

[2] = 50 micrograms equivalent to about 70 micrograms (2800 IU) of vitamin D3; cited from earlier work

SMILES	Intrinsic activity relative to 1α,25-dihydroxy-cholecalciferol [1]	Potency relative to vitamin D3 [2]	Progression of vertebral deformity (compared to placebo patients)	Decrease in the risk of vertebral fractures (compared to placebo, statistically significant, patients with fractures)	Reduction in vertebral fracture rate per 100 patients (total number of vertebral fractures, compared to placebo)
C=C1CC[C@H](O)C/C1=C/C=C1\CCC[C@]2(C)[C@@H]([C@H](C)CCCC(C)(C)O)CC[C@@H]12 [25-hydroxy-cholecalciferol]	about 100 fold lower	about 1.4 times			
NCCCC(O)(P(=O)(O)O)P(=O)(O)O [alendronate, 4-Amino-1-hydroxybutylidene-1,1-bisphosphonic acid monosodium trihydrate]			statistically significant decrease	at least 40%	at least 50%
